The assay deals with T1, recombinant human MMP13 catalytic domain (CD) (Homo sapiens, UniProt P45452).
T1 construct: catalytic domain (CD) construct encompassing residues 20-274 (SWISS-PROT P45452); made in house
In words: MMP-13 catalytic domain FRET enzyme assay. Particulars: recombinant human MMP-13 catalytic domain. It is filed as biochemical. As to the method:
A recombinant human MMP13 catalytic domain (CD) construct encompassing residues 20-274 (SWISS-PROT P45452) was generated by synthetic gene methods and bacterial expression. MMP-13 activity assays were performed using the recombinant human MMP-13 CD at a 0.4 nM concentration and the fluorogenic substrate (QXL-520)-K-P-L-A˜Nva-Dap(5-FAM)-A-R-NH2 (Anaspec cat #60554-01, San Jose, Calif.) at a 0.25 μM concentration in assay buffer containing […], pH 7.5, 10 mM CaCl2, 150 mM NaCl, 0.05% Brij 35. The assay is based on the cleavage of this substrate by MMP-13, resulting in decrease of FRET between the donor-acceptor pair and subsequent fluorescence enhancement. The assays were carried out in 384-well plates (Greiner cat #781076, Germany) for 60 min at RT. After the incubation period, the reaction was quenched by the addition of 5 μL of 500 mM EDTA (100 mM final concentration) (Rankem, Cat #E0120, India) mixed well and the rate of substrate hydrolysis was determined by monitoring change in fluorescence at excitation and emission wavelengths of 485 nm and 535 nm respectively. Fluorescence was measured on a Victor V5 plate reader (Perkin Elmer, Turku, Finland). The test compounds used for assessing the potency of inhibition of MMP-13 activity were dissolved in DMSO (final DMSO concentration in the assay was 5%). Selected compounds were also screened against full length MMP13 (R&D Systems (Cat. No. 511-MM-010), Minneapolis, Minn.) at 2 nM concentration using the same fluorogenic substrate mentioned above. The enzyme was activated using 1 m Mp-aminophenylmercuric acetate—APMA (Cat #A-9563, Sigma, Germany).
Data analysis: The percent inhibition of the enzyme activity in presence of test compounds were calculated using the equation, percent (%) Inhibition=100−[(Fi/Fc)*100] where Fc is the fluorescence corresponding to initial enzyme activity and Fi is the fluorescence corresponding to the enzyme activity in presence of inhibitor. The IC50 values were calculated by fitting the dose-response data to a sigmoidal curve fitting equation using Graph Pad prism software (Version 5, La Jolla, Calif.).
MMP13 Catalytic Domain (CD) Potency of the Described Examples Determined Using Time Resolved Fluorescence Resonance Energy Transfer (FRET) Enzyme Assays: […]

On to `COc1ccc(CNC(=O)c2cc(C3=NOC(c4ccc(N(C)C)cc4)C3)nc(C)n2)cc1` (stereo not drawn), for which the IC50 (usually the concentration needed to halve the response being measured) lay within 100 to 1000 nM.

As to `COc1ccc(CNC(=O)c2cc(C3=NOC(c4cccc(OCCO)c4)C3)nc(C)n2)cc1` (stereo not drawn), the IC50 is 10 to 100 nM.

Regarding `COc1ccc(CNC(=O)c2cc(C3=NOC(c4ccccn4)C3)nc(C)n2)cc1` (stereo not drawn), the IC50 fell in the range of 100 to 1000 nM.

Turning to `COc1ccc(CNC(=O)c2cc(C3=NOC(C4CCCCC4)C3)nc(C)n2)cc1` (stereo not drawn), the IC50 lay within 10 to 100 nM.

With `COc1ccc(CNC(=O)c2cc(C3=NOC(c4ccc(CO)cc4)C3)nc(C)n2)cc1` (stereo not drawn), the IC50 lay in the range of 10 to 100 nM.

On to `COc1ccc(CNC(=O)c2cc(C3=NOC(c4ccc(C(N)=O)cc4)C3)nc(C)n2)cc1` (stereo not drawn), for which the IC50 is under 10 nM.

Consider `COc1cc(CNC(=O)c2cc(C3=NOC(C4CCCCC4)C3)nc(C)n2)ccc1F` (stereo not drawn), for which the IC50 was under 10 nM.

Take `CNC(=O)NCC(=O)N1CCC(C2CC(c3cc(C(=O)NCc4ccc(F)c(OC)c4)nc(C)n3)=NO2)CC1` (stereo not drawn): the IC50 lay in the range of 10 to 100 nM.

Take `COc1cc(CNC(=O)c2cc(C3=NOC(c4ccc(C(C)O)cn4)C3)nc(C)n2)ccc1F` (stereo not drawn): the IC50 was under 10 nM.

Consider `COc1cc(CNC(=O)c2cc(C3=NOC(C4CCN(C(=O)N(C)CCO)CC4)C3)nc(C)n2)ccc1F` (stereo not drawn), for which the IC50 is under 10 nM.

For the compound `COc1cc(CNC(=O)c2cc(C3=NOC(C4CCN(C(=O)NC(C)C)CC4)C3)nc(C)n2)ccc1F` (stereo not drawn), the IC50 was 10 to 100 nM.

On to `COc1cc(CNC(=O)c2cc(C3=NOC(C4CCN(S(=O)(=O)c5nccn5C)CC4)C3)nc(C)n2)ccc1F` (stereo not drawn), for which the IC50 is under 10 nM.

Take `COc1cc(CNC(=O)c2cc(C3=NOC(C4CCN(S(=O)(=O)c5cn(C)cn5)CC4)C3)nc(C)n2)ccc1F` (stereo not drawn): the half-inhibitory concentration (IC50) was under 10 nM.

Take `COc1cc(CNC(=O)c2cc(C3=NOC(C4CCN(S(=O)(=O)c5cn(C)c(C)n5)CC4)C3)nc(C)n2)ccc1F` (stereo not drawn): the IC50 was under 10 nM.

For the compound `COc1cc(CNC(=O)c2cc(C3=NOC(C4CCN(S(=O)(=O)c5c(C)noc5C)CC4)C3)nc(C)n2)ccc1F` (stereo not drawn), the IC50 is under 10 nM.

On to `COc1cc(CNC(=O)c2cc(C3=NOC(c4ccc(S(C)(=O)=O)cn4)C3)nc(C)n2)ccc1F` (stereo not drawn), for which the IC50 was under 10 nM.

For `COc1cc(CNC(=O)c2cc(C3=NOC(c4ccc(=O)n(C)c4)C3)nc(C)n2)ccc1F` (stereo not drawn), the half-inhibitory concentration (IC50) lay within 10 to 100 nM.

With `COc1cc(CNC(=O)c2cc(C3=NOC(c4ccc(C(C)=O)cn4)C3)nc(C)n2)ccc1F` (stereo not drawn), the IC50 is under 10 nM.

Take `COc1cc(CNC(=O)c2cc(C3=NOC(c4ccc(-c5nc(C)no5)cn4)C3)nc(C)n2)ccc1F` (stereo not drawn): the IC50 is under 10 nM.

As for `Cc1nc(C(=O)NCc2ccc(F)cc2)cc(C2=NO[C@H]([C@H]3CO[C@H](CO)CO3)C2)n1`, the IC50 fell in the range of 10 to 100 nM.

As for `Cc1nc(C(=O)NCc2ccc(F)cc2)cc(C2=NO[C@@H]([C@H]3CO[C@H](CO)CO3)C2)n1`, the IC50 was over 1000 nM.

For the compound `COc1ccc(CNC(=O)c2cc(C3=NO[C@H]([C@H]4CO[C@H](CO)CO4)C3)nc(C)n2)cc1`, the IC50 lay within 10 to 100 nM.

As for `COc1ccc(CNC(=O)c2cc(C3=NO[C@@H]([C@H]4CO[C@H](CO)CO4)C3)nc(C)n2)cc1`, the IC50 was over 1000 nM.

As for `COc1cccc(CNC(=O)c2cc(C3=NO[C@@H]([C@H]4CO[C@H](CO)CO4)C3)nc(C)n2)c1`, the IC50 is over 1000 nM.

On to `COc1ccc(C2CC(c3ccnc(C(=O)NCc4cccc(OC)c4)c3)=NO2)cc1` (stereo not drawn), for which the IC50 lay in the range of 10 to 100 nM.

Take `COc1cccc(CNC(=O)c2cc(C3=NOC(C)(c4ccc(Cl)cc4)C3)ccn2)c1` (stereo not drawn): the IC50 is over 1000 nM.

On to `COc1cccc(CNC(=O)c2cc(C3=NOC(c4ccc(C(=O)O)cc4)C3)ccn2)c1` (stereo not drawn), for which the IC50 is under 10 nM.

Consider `COc1ccc(CNC(=O)c2cc(C3=NOC(c4ccc(CN(C)C)cc4)C3)ccn2)cc1` (stereo not drawn), for which the IC50 was over 1000 nM.

Consider `COc1ccc(CNC(=O)c2cc(C3=NOC(c4ccc(C(=O)O)cc4)C3)ccn2)cc1` (stereo not drawn), for which the IC50 lay in the range of 10 to 100 nM.

Consider `COc1ccc(CNC(=O)c2cc(C3=NOC(C)(c4ccc(Cl)cc4)C3)ccn2)cc1` (stereo not drawn), for which the IC50 is 100 to 1000 nM.

With `COc1ccc(CNC(=O)c2cc(C3=NOC(C)(c4ccccc4)C3)ccn2)cc1` (stereo not drawn), the IC50 is over 1000 nM.

Turning to `COc1ccc(CNC(=O)c2cc(C3=NOC(c4cnccn4)C3)ccn2)cc1` (stereo not drawn), the IC50 is over 1000 nM.

As to `COc1ccc(CNC(=O)c2cc(C3=NOC(c4ccc(OC)cc4)C3)ccn2)cc1` (stereo not drawn), the IC50 is 100 to 1000 nM.

For `COc1cccc(CNC(=O)c2cc(C3=NO[C@H]([C@H]4CO[C@H](CO)CO4)C3)nc(C)n2)c1`, the IC50 fell in the range of 10 to 100 nM.

Regarding `COc1cccc(CNC(=O)c2cc(C3=NO[C@@H]([C@@H]4CO[C@@H](CO)CO4)C3)nc(C)n2)c1`, the IC50 is over 1000 nM.

With `COc1cccc(CNC(=O)c2cc(C3=NO[C@H]([C@@H]4CO[C@@H](CO)CO4)C3)nc(C)n2)c1`, the IC50 was 10 to 100 nM.

With `Cc1nc(C(=O)NCc2ccc(F)cc2)cc(C2=NO[C@@H]([C@@H]3CO[C@@H](CO)CO3)C2)n1`, the IC50 was over 1000 nM.

Turning to `Cc1nc(C(=O)NCc2ccc(F)cc2)cc(C2=NO[C@H]([C@H]3CO[C@@H](CO)CO3)C2)n1`, the IC50 lay within 10 to 100 nM.

With `COc1cc(CNC(=O)c2cc(C3=NO[C@H]([C@H]4CO[C@H](CNC(C)=O)CO4)C3)nc(C)n2)ccc1F`, the IC50 was under 10 nM.

As for `COc1cc(CNC(=O)c2cc(C3=NO[C@H]([C@H]4CO[C@H](CNS(C)(=O)=O)CO4)C3)nc(C)n2)ccc1F`, the IC50 is under 10 nM.

For the compound `COc1cc(CNC(=O)c2cc(C3=NOC(C4CCN(C(=O)Nc5nccs5)CC4)C3)nc(C)n2)ccc1F` (stereo not drawn), the IC50 lay within 10 to 100 nM.

For `COc1cc(CNC(=O)c2cc(C3=NOC([C@H]4CC[C@H](CNC(C)=O)CC4)C3)nc(C)n2)ccc1F` (stereo partly drawn), the IC50 was under 10 nM.

As to `COc1cc(CNC(=O)c2cc(C3=NOC(c4ccc(-c5cnco5)cn4)C3)nc(C)n2)ccc1F` (stereo not drawn), the IC50 is under 10 nM.

For `COc1cc(CNC(=O)c2cc(C3=NOC(c4ccc(S(C)(=O)=O)nn4)C3)nc(C)n2)ccc1F` (stereo not drawn), the IC50 was in the range of 10 to 100 nM.

On to `COc1cc(CNC(=O)c2cc(C3=NOC(c4ccc(-c5nc(C)no5)nc4)C3)nc(C)n2)ccc1F` (stereo not drawn), for which the IC50 was under 10 nM.

For the compound `COc1cc(CNC(=O)c2cc(C3=NOC(c4ccc(C(C)=O)nc4)C3)nc(C)n2)ccc1F` (stereo not drawn), the IC50 was under 10 nM.

`COc1cc(CNC(=O)c2cc(C3=NOC(c4ccc(C(N)=O)nn4)C3)nc(C)n2)ccc1F` (stereo not drawn): the IC50 lay in the range of 10 to 100 nM.

Take `COc1cc(CNC(=O)c2cc(C3=NOC(c4ccc(C#N)nn4)C3)nc(C)n2)ccc1F` (stereo not drawn): the IC50 is under 10 nM.

Regarding `COc1cc(CNC(=O)c2cc(C3=NOC([C@H]4CC[C@H](CNC(=O)CO)CC4)C3)nc(C)n2)ccc1F` (stereo partly drawn), the IC50 was under 10 nM.

Turning to `COc1cc(CNC(=O)c2cc(C3=NOC(c4cc(-c5nc(C)no5)nn4C)C3)nc(C)n2)ccc1F` (stereo not drawn), the IC50 fell in the range of 10 to 100 nM.

On to `COc1cc(CNC(=O)c2cc(C3=NOC(c4cc(C(N)=O)nn4C)C3)nc(C)n2)ccc1F` (stereo not drawn), for which the IC50 was 100 to 1000 nM.

In the case of `COc1cc(CNC(=O)c2cc(C3=NOC([C@H]4CC[C@H](CNC(=O)CC#N)CC4)C3)nc(C)n2)ccc1F` (stereo partly drawn), the IC50 is under 10 nM.

As to `CNC(=O)c1ccc(C2CC(c3cc(C(=O)NCc4ccc(F)c(OC)c4)nc(C)n3)=NO2)nn1` (stereo not drawn), the IC50 fell in the range of 10 to 100 nM.

Turning to `COc1cc(CNC(=O)c2cc(C3=NOC(c4ccc(-c5nc(C)no5)nn4)C3)nc(C)n2)ccc1F` (stereo not drawn), the IC50 is under 10 nM.

Take `COc1cc(CNC(=O)c2cc(C3=NO[C@H]([C@H]4CO[C@H](CNC(=O)CO)CO4)C3)nc(C)n2)ccc1F`: the IC50 was under 10 nM.

As to `COc1cc(CNC(=O)c2cc(C3=NOC(c4ccc(-c5cnco5)nc4)C3)nc(C)n2)ccc1F` (stereo not drawn), the IC50 was under 10 nM.

With `COc1cc(CNC(=O)c2cc(C3=NOC(c4ccc(CO)nc4)C3)nc(C)n2)ccc1F` (stereo not drawn), the IC50 is 10 to 100 nM.

`COc1cc(CNC(=O)c2cc(C3=NOC([C@H]4CC[C@H](NC(=O)NCCO)CC4)C3)nc(C)n2)ccc1F` (stereo partly drawn): the IC50 was under 10 nM.

For `COc1cc(CNC(=O)c2cc(C3=NOC([C@H]4CC[C@H](NC(=O)N(C)CCO)CC4)C3)nc(C)n2)ccc1F` (stereo partly drawn), the IC50 was under 10 nM.

`COc1cc(CNC(=O)c2cc(C3=NOC(c4cnc(S(C)(=O)=O)cn4)C3)nc(C)n2)ccc1F` (stereo not drawn): the IC50 lay within 10 to 100 nM.

Regarding `COc1cc(CNC(=O)c2cc(C3=NOC(c4ccc(C#N)nc4)C3)nc(C)n2)ccc1F` (stereo not drawn), the IC50 was under 10 nM.

For the compound `COc1cc(CNC(=O)c2cc(C3=NOC(C4CCN(C(=O)CCN(C)C)CC4)C3)nc(C)n2)ccc1F` (stereo not drawn), the IC50 is 10 to 100 nM.

`Cc1nc(C(=O)NCc2ccc(F)c(C)c2)cc(C2=NO[C@H]([C@H]3CO[C@H](CO)CO3)C2)n1`: the IC50 fell in the range of 100 to 1000 nM.

The values are drawn from patent publication US9029409B2, “Isoxazolines as therapeutic agents” (AbbVie Inc., priority 2011, dated 2015).
